Laboratory results: PMC5025259 (ACS infectious diseases, 2016)

Tests used:
[1] = tested on: BSA endocytosis in bloodstream T. brucei; test: Endocytosis assay: BSA-A647 uptake by bloodstream trypanosomes; type: cell-based, Trypanosoma brucei; details: bulk-phase uptake
[2] = tested on: bloodstream form (BSF) CA427 trypanosomes; test: Proliferation inhibition assay; type: cell-based, Trypanosoma brucei; details: axenic cultures of bloodstream trypanosomes, 48 h
[3] = tested on: Tf endocytosis in HeLa cells; test: HeLa cell endocytosis of transferrin; type: cell-based, human; details: each compound 10 μM, Tf-Alexa488 5 μg/mL, 15 min at 37 °C
rTbGSK3β = target: T1, rTbGSK3β (Trypanosoma brucei brucei, UniProt Q388M1); test: biochemical
T1 sequence (Q388M1 1-352): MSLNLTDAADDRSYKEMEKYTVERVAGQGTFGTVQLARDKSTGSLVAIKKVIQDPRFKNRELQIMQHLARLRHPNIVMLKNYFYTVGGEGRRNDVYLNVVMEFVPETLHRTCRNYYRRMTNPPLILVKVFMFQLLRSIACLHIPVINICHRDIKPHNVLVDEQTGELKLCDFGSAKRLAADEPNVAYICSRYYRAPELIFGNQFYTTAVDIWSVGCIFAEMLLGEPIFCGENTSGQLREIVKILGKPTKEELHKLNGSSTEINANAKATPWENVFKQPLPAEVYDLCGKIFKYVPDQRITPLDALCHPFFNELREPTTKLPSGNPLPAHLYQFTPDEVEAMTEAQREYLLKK

[4] = tested on: transferrin (Tf) endocytosis in bloodstream T. brucei; details: cited from earlier work
[5] = tested on: transferrin (Tf) endocytosis in bloodstream T. brucei; type: cell-based, Trypanosoma brucei; details: Figure S1
[6] = tested on: bloodstream form (BSF) CA427 trypanosomes; details: read-out: GI50 (concentration of drug that inhibits growth by 50%); trypanosome proliferation; cited from earlier work
[7] = tested on: Hp-Hb endocytosis in bloodstream T. brucei; test: Endocytosis assay: Hp-Hb-A488 uptake by bloodstream trypanosomes; type: cell-based, Trypanosoma brucei; details: Hp-Hb 38 nM
[8] = tested on: Tf endocytosis in TbGSK3β overexpression trypanosomes; test: Tf endocytosis in trypanosomes overexpressing TbGSK3β; type: cell-based, Trypanosoma brucei; details: clone 1, TWS119 10 μM, 3 h induction

In the case of O=C1Nc2ccc3ncsc3c2/C1=C/Nc1ccc(S(=O)(=O)Nc2ccccn2)cc1 [GW8510], the “Effect on BSA endocytosis” value [1] is reported as “decreased”, the “T. brucei GL50” value [2] is reported as 0.12 µM and the “Effect on Tf endocytosis in HeLa cells” value [3] is reported as “Neither TbGSK3β inhibitor affected”.

With O=S(=O)(NCCNC/C=C/c1ccc(Br)cc1)c1cccc2cnccc12 [H-89] the “Effect on Tf endocytosis in HeLa cells” value [3] was “decreased”.

In the case of Cc1cc(Nc2cc(CN3CCOCC3)c3nc(C)c(Cc4ccc(Cl)cc4F)n3n2)n[nH]1 [LY2784544], the IC50 (rTbGSK3β) is reported as 600 ± 200 nM and the “T. brucei GL50” value [2] is reported as 1.0 µM.

For CS(=O)(=O)CCNCc1ccc(-c2ccc3ncnc(Nc4ccc(OCc5cccc(F)c5)c(Cl)c4)c3c2)o1 [Lapatinib], the “Effect on Tf endocytosis in T. brucei” value ([4]; ref Guyett, P.J., et al., manuscript submitted) is given as “blocks”.

With C[C@@H](Nc1ncnc2[nH]c(-c3ccc(O)cc3)cc12)c1ccccc1 [PKI-166] the IC50 (rTbGSK3β) was greater than 20000 nM, the “Effect on Tf endocytosis” value [5] was “did not inhibit” and the “Effect on BSA endocytosis” value [1] was “did not inhibit”. For the same compound, the GI50 [6] was 5 µM.

In the case of CNC(=O)c1cc(Oc2ccc(NC(=O)Nc3ccc(Cl)c(C(F)(F)F)c3)cc2)ccn1 [Sorafenib], the “T. brucei GL50” value [2] is reported as 3.1 µM.

For Nc1cccc(-c2cc3c(Oc4cccc(O)c4)ncnc3[nH]2)c1 [TWS119], the “Effect on BSA endocytosis” value [1] was “did not decrease”, the “Effect on Hp-Hb endocytosis” value [7] was “did not decrease” and the “T. brucei GL50” value [2] was 1.1 µM. For the same compound, the “Effect on Tf endocytosis in HeLa cells” value [3] was “Neither TbGSK3β inhibitor affected” and the “Reduction of Tf endocytosis driven by TbGSK3β overexpression” value [8] was 300%.

In the case of N#C/C(=C\c1ccc(O)c(O)c1)C(N)=S [tyrphostin-A47], the “Effect on Tf endocytosis in the parasite” value [4] is listed as “blocks”.
